Article PMC6470523, “Introduction of Nonacidic Side Chains on 6-Ethylcholane Scaffolds in the Identification of Potent Bile Acid Receptor Agonists with Improved Pharmacokinetic Properties” (Molecules, 2019)
Converted amounts (≈) assume the structure as drawn.

What was measured:
[1] = molecular target: T1, human FXR (Homo sapiens, UniProt Q96RI1); test: FXR transactivation luciferase reporter assay in HepG2 cells; format: cell-based; details: for EC50: dose response 0.5 to 50 µM, 18 h; for EC50 / FXR Eff (%) vs 6-ECDCA / FXR Eff (%) vs CDCA: HepG2 cells; for FXR Eff (%) vs 6-ECDCA: maximum efficacy of compound (10 µM) relative to 6-ECDCA (1 µM) set as 100%; for FXR Eff (%) vs 6-ECDCA / FXR Eff (%) vs CDCA: FRE transactivation; for FXR Eff (%) vs CDCA: maximum efficacy of compound (10 µM) relative to CDCA (10 μM) set as 100%; for FXR activity (in words): transactivation assay
T1 construct: expressed in transfected cells; host or cells: HepG2
T1 sequence (Q96RI1 1-486): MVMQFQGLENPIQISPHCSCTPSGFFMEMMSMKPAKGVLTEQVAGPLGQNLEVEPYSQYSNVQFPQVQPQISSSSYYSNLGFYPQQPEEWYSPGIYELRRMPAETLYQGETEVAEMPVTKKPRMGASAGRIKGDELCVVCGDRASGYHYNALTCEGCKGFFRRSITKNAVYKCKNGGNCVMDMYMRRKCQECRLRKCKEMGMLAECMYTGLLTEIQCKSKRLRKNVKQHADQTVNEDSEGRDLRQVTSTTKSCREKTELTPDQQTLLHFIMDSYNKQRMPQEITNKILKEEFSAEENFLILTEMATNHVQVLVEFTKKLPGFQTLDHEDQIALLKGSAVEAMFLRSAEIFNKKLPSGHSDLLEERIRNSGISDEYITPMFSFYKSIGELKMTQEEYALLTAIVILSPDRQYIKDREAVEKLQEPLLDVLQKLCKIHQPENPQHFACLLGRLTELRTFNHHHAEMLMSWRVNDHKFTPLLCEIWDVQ
T1 sequence (P19793 1-462 partner): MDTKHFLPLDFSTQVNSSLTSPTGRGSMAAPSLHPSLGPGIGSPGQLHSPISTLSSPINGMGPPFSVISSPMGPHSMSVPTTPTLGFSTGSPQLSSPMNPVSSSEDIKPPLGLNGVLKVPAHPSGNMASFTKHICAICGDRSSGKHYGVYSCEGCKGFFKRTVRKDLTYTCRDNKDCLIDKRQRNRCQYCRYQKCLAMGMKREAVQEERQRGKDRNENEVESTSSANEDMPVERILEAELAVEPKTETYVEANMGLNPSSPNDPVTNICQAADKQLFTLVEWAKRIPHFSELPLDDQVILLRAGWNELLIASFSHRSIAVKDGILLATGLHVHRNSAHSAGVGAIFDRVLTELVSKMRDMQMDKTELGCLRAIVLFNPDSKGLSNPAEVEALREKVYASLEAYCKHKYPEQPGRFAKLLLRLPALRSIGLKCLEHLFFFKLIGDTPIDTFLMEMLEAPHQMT
Procedure: (§1) To evaluate FXR mediated transactivation, HepG2 cells were transfected with 100 ng of human pSG5-FXR, 100 ng of human pSG5-RXR, 200 ng of the reporter vector p(hsp27)-TK-LUC containing the FXR response element IR1 cloned from the promoter of heat shock protein 27 (hsp27) and with 100 ng of pGL4.70 (Promega), a vector encoding the human Renilla gene. To evaluate GPBAR1 mediated transactivation, HEK293T cells were transfected with 200 ng of human pGL4.29 (Promega), a reporter vector containing a cAMP response element (CRE) that drives the transcription of the luciferase reporter gene luc2P, with 100 ng of pCMVSPORT6-human GPBAR1, and with 100 ng of pGL4.70. […] After treatments, 10 μL of cellular lysates were read using a Dual-Luciferase Reporter Assay System (Promega Italia srl, Milan, Italy) according manufacturer specifications using the Glomax20/20 luminometer (Promega Italia srl, Milan, Italy). Luciferase activities were assayed and normalized with Renilla activities.
(§2) At 18 h post stimulations, cellular lysates were assayed for luciferase and Renilla activities using the Dual-Luciferase Reporter Assay System (E1980, Promega Italia srl, Milan, Italy). Luminescence was measured using Glomax 20/20 luminometer (Promega Iralia srl, Milan, Italy). Luciferase activities were normalized with Renilla activities.

[2] = molecular target: T2, human GPBAR1 (Homo sapiens, UniProt Q8TDU6); test: GPBAR1 transactivation (CRE luciferase reporter) assay in HEK293T cells; format: cell-based; details: for EC50: dose response 0.5 to 50 µM, 18 h; for GPBAR1 Eff (%) vs 6-ECDCA: maximum efficacy of compound (10 µM) relative to 6-ECDCA (1 µM) set as 100, CRE transactivation; for GPBAR1 Eff (%) vs TLCA: maximum efficacy of compound (10 µM) relative to TLCA (10 μM) set as 100, CRE transactivation
T2 construct: expressed in transfected cells; host or cells: HEK293T
T2 sequence (Q8TDU6 1-330): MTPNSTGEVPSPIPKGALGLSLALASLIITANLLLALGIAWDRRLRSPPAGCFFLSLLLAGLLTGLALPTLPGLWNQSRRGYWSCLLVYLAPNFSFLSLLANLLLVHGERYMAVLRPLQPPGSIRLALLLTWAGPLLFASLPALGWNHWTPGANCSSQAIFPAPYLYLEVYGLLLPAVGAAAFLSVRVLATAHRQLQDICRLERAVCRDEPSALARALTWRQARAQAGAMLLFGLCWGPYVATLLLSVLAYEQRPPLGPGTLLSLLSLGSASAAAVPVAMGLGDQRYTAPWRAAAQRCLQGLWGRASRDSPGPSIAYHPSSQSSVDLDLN
Procedure: as §1, §2

[3] = Aqueous solubility measurement (PBS pH 7.4, LC-MS); format: physicochemical; details: aqueous buffer, kinetic from dmso stock; aqueous solubility at pH 7.4 (PBS), 24 h room temperature
Procedure: (§3) Chromatography was performed using an Alliance pump system coupled to a Q-ToF Premiere (Waters Co., Milford, MA, USA). The mixture was separated on a Luna 5 µm C8(2) 100° A 150 × 2 mm from Phenomenex. The mobile phase consisted of 0.2% formic acid (FA) in water as solvent A and 0.2% FA in acetonitrile as solvent B at a flow rate of 200 μL/min. The gradient was as follows: 0–2 min (70% A and 30% B), 2–20 min (5% A and 95% B), 20–30 min (70% A and 30% B). The detection of analytes was achieved by electrospray ionization (ESI) in the positive mode with the appropriate MS/MS transitions, if necessary.
Ten microliters of a 10 mM solution in DMSO of each compound was diluted either in 490 μL of PBS pH 7.4 or in organic solvent MeOH (in triplicate). The tubes were gently shaken 24 h at room temperature, then centrifuged for 5 min at 4000 rpm. 10 microliters of sample were diluted in 490 μL of MeOH. The solubility is determined by the ratio of mass signal area PBS/organic solvent.

[4] = Liver microsomal stability; format: in vitro ADME, mouse; details: liver microsomes; for microsomal CLint at 1 µM / half-life at 1 µM: male, CD-1, mouse, pH 7.4, 1 μM compound, 37 °C; for half-life at 1 µM: read-out: t½
Procedure: as §3
Male mouse (CD-1) liver microsomes (Sigma-Aldrich, St. Louis, MO, USA) were used. All incubations were performed in duplicate in a shaking water bath at 37 °C. The incubation mixtures contained 1 μM compound with 1% DMSO used as a vehicle, mouse liver microsomes (0.3 mg of microsomal protein per mL), 5 mM MgCl2, 1 mM NADP, 5 mM glucose 6-phosphate, 0.4 U·mL^−1 glucose 6-phosphate dehydrogenase, and 50 mM potassium phosphate buffer (pH 7.4) in a final volume of 0.5 mL. Aliquots were removed at 0, 5, 10, 20, 30, and 40 min after microsome addition and the reaction was stopped by adding 200 μL of ice-cold acetonitrile. After two hours, the samples were centrifuged for 10 min at 10,000 rpm, and the supernatants were transferred in matrix tubes for LC-MS/MS analysis. LC-MS/MS analysis were carried out setting the m/z window around the value of the MH^+ of the unmodified compounds.
Propranolol, known as a high hepatic clearance drug in rodents, was used as a quality-control compound for the microsomal incubations. The slope of the linear regression of the curve obtained reporting the natural logarithm of compound area versus incubation time (−k) was used in the conversion to in vitro t1/2 values by t1/2 = −ln(2)/k. In vitro intrinsic clearance (Clint expressed as μL/min/mg) was calculated according to the following formula: Clint = volume of reaction (µL)/t1/2(min)/protein of liver microsomes (mg). The percentage of unmodified compound has been calculated assuming the area of the compound peak at time 0 min as 100%.

| Compound | EC50 [1] [µM] | FXR Eff (%) vs 6-ECDCA [1] [%] | FXR Eff (%) vs CDCA [1] [%] | EC50 [2] [µM] | GPBAR1 Eff (%) vs 6-ECDCA [2] [%] | GPBAR1 Eff (%) vs TLCA [2] [%] | solubility at 24 h [3] [µM] | Percentage of compound remaining in solution after 40 min incubation [4] [%] | microsomal CLint at 1 µM [4] [µL/min/mg] | half-life at 1 µM [4] [min] | FXR activity (in words) [1] |
| --- | --- | --- | --- | --- | --- | --- | --- | --- | --- | --- | --- |
| CCC1C(O)C2C3CCC(C(C)CO)C3(C)CCC2C2(C)CCC(O)CC12 (stereo not drawn) [compound 3, 6α-Ethyl-3α, 7α -dihydroxy-23,24-dinor-5β-cholan-22-ol] | 2.8 ± 0.45 | 45 | 257 | 0.43 ± 0.015 | 243.4 | 55 | 210 (≈ 79.5 µg/mL) | 60.6 | 36.6 | 63 |  |
| C=CC(C)C1CCC2C3C(O)C(CC)C4CCCCC4(C)C3CCC12C (stereo not drawn) [compound 4, 6α-Ethyl-7α-hydroxy-24-nor-5β-chol-23-ene] |  | 3.1 | 17 |  | 68.8 | 15 |  |  |  |  | inactive |
| CC[C@H]1[C@@H](O)[C@@H]2[C@H](CC[C@]3(C)[C@@H]([C@H](C)CCC(=O)O)CC[C@@H]23)[C@@]2(C)CC[C@@H](O)C[C@@H]12 [6-ECDCA, 6-ethylchenodeoxycholic acid, reference compound] |  |  |  |  |  |  | 195 (≈ 82 µg/mL) | 26.9 | 109 | 21.1 |  |
| C=CC(C)C1CCC2C3C(O)C(CC)C4CC(O)CCC4(C)C3CCC12C (stereo not drawn) [compound 1, 6α-Ethyl-3α, 7α-dihydroxy-24-nor-5β-chol-23-ene] | 1.8 ± 0.5 | 45.6 | 252 | 0.14 ± 0.032 | 367.1 | 79 | 201 (≈ 75.3 µg/mL) | 42.2 | 52.6 | 43.8 |  |
| CCC(C)C1CCC2C3C(O)C(CC)C4CC(O)CCC4(C)C3CCC12C (stereo not drawn) [compound 2, 6α-Ethyl-3α, 7α -dihydroxy-24-nor-5β-cholane] | 1.3 ± 0.12 | 46.5 | 249 | 1.5 ± 0.29 | 255.2 | 53 | 176 (≈ 66.3 µg/mL) | 72.8 | 25 | 92.4 |  |
| CCC(C)C1CCC2C3C(O)C(CC)C4CCCCC4(C)C3CCC12C (stereo not drawn) [compound 5, 6α-Ethyl-7α-hydroxy-23,24-dinor-5β-cholane] |  | 2.5 | 14 |  | 53.4 | 12 |  |  |  |  | inactive |
